# Results reported in ChEMBL document CHEMBL1128607, “Structure-based design of novel HIV protease inhibitors: carboxamide-containing 4-hydroxycoumarins and 4-hydroxy-2-pyrones as potent nonpeptidic inhibitors” (J Med Chem, 1995).
# Biological target: Human immunodeficiency virus type 1 protease (Human immunodeficiency virus 1, UniProt Q72874)
# Experiment: Ability to inhibit HIV protease purified and refolded from Escherichia coli inclusion bodies
row,SMILES,Ki
1,CCC(Cc1ccccc1)c1cc(O)c(C(c2cccc(NC(=O)[C@H](Cc3c[nH]cn3)NC(=O)OC(C)(C)C)c2)C2CC2)c(=O)o1 (stereo partly drawn),4 nM
2,CCC(c1ccccc1)c1c(O)c2ccc(OC)cc2oc1=O (stereo not drawn),560 nM
3,CCC(Cc1ccccc1)c1cc(O)c(C(c2cccc(NC(=O)Cc3ccncc3)c2)C2CC2)c(=O)o1 (stereo not drawn),44 nM
4,O=c1oc2ccccc2c(O)c1C(c1ccccc1)C1CC1 (stereo not drawn),350 nM
5,CCC(c1cccc(NC(=O)CCNC(=O)OC(C)(C)C)c1)c1c(O)oc2cc(OC)ccc2c1=O (stereo not drawn),170 nM
6,CCC(c1cccc(C(=O)NCc2nc3ccccc3[nH]2)c1)c1c(O)oc2ccccc2c1=O (stereo not drawn),4400 nM
7,COc1ccc2c(O)c(C(c3ccccc3)C3CC3)c(=O)oc2c1 (stereo not drawn),170 nM
8,COc1ccc2c(O)c(C(c3cccc(NC(=O)CCNC(=O)OC(C)(C)C)c3)C3CC3)c(=O)oc2c1 (stereo not drawn),28 nM
9,CCC(c1cccc(NC(=O)[C@@H]2CCCN2C(=O)OC(C)(C)C)c1)c1c(O)c2ccccc2oc1=O (stereo partly drawn),3600 nM
10,CCC(c1cccc(NC(=O)CCCNC(=O)OC(C)(C)C)c1)c1c(O)c2ccccc2oc1=O (stereo not drawn),1600 nM
11,CCC(c1cccc(NC(=O)CCNC(=O)OC(C)(C)C)c1)c1c(O)c2ccccc2oc1=O (stereo not drawn),280 nM
12,CCC(Cc1ccccc1)c1cc(O)c(C(c2cccc(NC(=O)[C@H](C)NC(=O)OC(C)(C)C)c2)C2CC2)c(=O)o1 (stereo partly drawn),15 nM
13,CC(C)(C)OC(=O)NCCC(=O)Nc1cccc(C(c2c(O)oc3ccccc3c2=O)C2CC2)c1 (stereo not drawn),86 nM
14,CCC(c1cccc(C(=O)N[C@H](C(=O)NCc2ccccn2)C(C)CC)c1)c1c(O)oc2ccccc2c1=O (stereo partly drawn),400 nM
15,CCC(c1cccc(NC(=O)[C@H](C)NC(=O)OC(C)(C)C)c1)c1c(O)c2ccccc2oc1=O (stereo partly drawn),170 nM
16,CCC(Cc1ccccc1)c1cc(O)c(C(c2cccc(NC(=O)[C@H](Cc3cn(S(=O)(=O)c4ccc(C)cc4)cn3)NC(=O)OC(C)(C)C)c2)C2CC2)c(=O)o1 (stereo partly drawn),19 nM
17,CCC(c1cccc(NC(=O)CCn2ccc3ccccc32)c1)c1c(O)c2ccccc2oc1=O (stereo not drawn),110 nM
18,CCC(c1cccc(NC(=O)CNC(=O)OC(C)(C)C)c1)c1c(O)c2ccccc2oc1=O (stereo not drawn),160 nM
